The values that follow come from patent US10988477B2 (Merck Patent GmbH, priority 2018, dated 2021).

Experiment [1] concerns the target intracellular GCN2 (phosphorylation of the GCN2 substrate eIF2α) (Homo sapiens, UniProt Q9P2K8). Briefly: GCN2 cellular inhibition assay (AlphaScreen SureFire P-eIF2α Ser51, borrelidin-treated U2OS cells). Format: cell-based. Particulars: compounds of Formula II; biomarker assay, phosphorylated eIF2α Ser51 in borrelidin-treated U2OS cells. The gist of the method:
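Compound effect on GCN2 is gauged by eIF2α Ser51 phosphorylation in borrelidin-challenged U2OS cells (10 μM, 1 h). Top compound level is 40 μM final.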
For orientation: Bead proximity is the source of the signal in Alpha formats.

The next experiment concerns the target GCN2 kinase (Homo sapiens, UniProt Q9P2K8). Briefly: GCN2 enzyme inhibition assay (Transcreener ADP2 fluorescence polarization). Format: biochemical. Particulars: compounds of Formula II; 280 μM ATP, 4 nM GCN2 kinase. The essentials:
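ADP formation read by Transcreener FP after a 1 h, 25 °C kinase reaction containing 280 μM ATP, 200 μM (RS)7 substrate and 4 nM GCN2, pH 7.5 Tris buffer. Compounds (0–8 μM final) were added 10 min before ATP. Percent inhibition gave IC50 and apparent Ki via tight-binding fit.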
For orientation: In fluorescence polarisation assays a small probe gives low polarisation when free and higher when bound to something large.

For orientation: IC50 means the concentration that inhibits the measured activity by half. Low readings indicate inhibition by little substance, high ones a need for much substance. The term Ki denotes the equilibrium dissociation constant of an inhibitor or competing ligand from its target. A low value points to higher affinity.

A value given as a limit tells only on which side of the number the result lay.

GCN2 kinase, sequence (Q9P2K8 whole entry): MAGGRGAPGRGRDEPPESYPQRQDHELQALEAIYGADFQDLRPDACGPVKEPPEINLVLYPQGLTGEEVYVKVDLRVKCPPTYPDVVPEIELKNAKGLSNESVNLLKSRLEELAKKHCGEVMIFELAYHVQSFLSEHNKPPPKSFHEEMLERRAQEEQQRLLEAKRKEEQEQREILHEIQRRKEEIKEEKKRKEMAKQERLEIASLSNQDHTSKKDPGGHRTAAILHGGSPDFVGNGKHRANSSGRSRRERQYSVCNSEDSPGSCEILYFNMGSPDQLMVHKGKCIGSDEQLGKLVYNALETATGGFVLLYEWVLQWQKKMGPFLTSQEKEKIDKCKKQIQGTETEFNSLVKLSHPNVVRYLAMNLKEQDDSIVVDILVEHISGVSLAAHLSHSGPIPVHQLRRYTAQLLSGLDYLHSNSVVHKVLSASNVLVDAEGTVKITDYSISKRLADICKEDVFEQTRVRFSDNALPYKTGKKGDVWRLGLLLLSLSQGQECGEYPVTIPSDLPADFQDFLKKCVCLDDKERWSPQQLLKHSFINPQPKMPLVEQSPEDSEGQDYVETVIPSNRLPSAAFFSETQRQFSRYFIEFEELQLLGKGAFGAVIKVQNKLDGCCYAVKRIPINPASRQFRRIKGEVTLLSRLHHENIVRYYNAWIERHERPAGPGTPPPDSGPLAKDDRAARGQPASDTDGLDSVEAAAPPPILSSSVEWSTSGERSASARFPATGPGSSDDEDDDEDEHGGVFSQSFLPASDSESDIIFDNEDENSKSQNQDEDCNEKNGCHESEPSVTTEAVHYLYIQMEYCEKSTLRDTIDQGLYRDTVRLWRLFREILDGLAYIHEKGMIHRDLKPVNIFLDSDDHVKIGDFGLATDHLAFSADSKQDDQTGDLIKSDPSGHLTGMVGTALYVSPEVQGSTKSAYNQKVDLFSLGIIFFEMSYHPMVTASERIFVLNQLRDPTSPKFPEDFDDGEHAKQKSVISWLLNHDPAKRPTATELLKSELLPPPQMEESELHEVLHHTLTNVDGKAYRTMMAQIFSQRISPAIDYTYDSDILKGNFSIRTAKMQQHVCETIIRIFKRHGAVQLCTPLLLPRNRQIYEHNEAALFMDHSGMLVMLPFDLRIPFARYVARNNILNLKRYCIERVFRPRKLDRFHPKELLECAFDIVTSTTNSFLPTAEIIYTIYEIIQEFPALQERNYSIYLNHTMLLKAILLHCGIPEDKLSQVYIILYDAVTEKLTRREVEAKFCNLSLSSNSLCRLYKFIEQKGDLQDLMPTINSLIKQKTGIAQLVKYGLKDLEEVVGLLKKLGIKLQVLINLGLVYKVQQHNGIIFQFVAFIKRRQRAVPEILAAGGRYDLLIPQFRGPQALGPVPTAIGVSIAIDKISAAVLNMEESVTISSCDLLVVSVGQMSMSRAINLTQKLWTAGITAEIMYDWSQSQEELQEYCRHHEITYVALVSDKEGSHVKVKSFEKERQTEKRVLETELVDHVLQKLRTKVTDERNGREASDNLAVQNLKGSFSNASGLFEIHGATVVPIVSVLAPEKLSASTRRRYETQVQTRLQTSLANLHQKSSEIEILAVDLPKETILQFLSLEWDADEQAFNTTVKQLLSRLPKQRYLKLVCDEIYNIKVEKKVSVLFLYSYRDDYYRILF
intracellular GCN2 (phosphorylation of the GCN2 substrate eIF2α), sequence (Q9P2K8 whole entry): as above

Turning to `CS(=O)(=O)N1CCC2(CCCCN2c2cc(-c3cnc4ccc(C(F)F)nn34)ncn2)C1` (stereo not shown) [II-256, 6-(6-(6-(Difluoromethyl)imidazo[1,2-b]pyridazin-3-yl)pyrimidin-4-yl)-2-(methylsulfonyl)-2,6-diazaspiro[4.5]decane], the IC50 in experiment [1] was above 5000 nM. At GCN2 kinase, this compound registered a Ki of 10 to 1000 nM.

Regarding `CC1(C)CN(c2cc(-c3cnc4ccc(C(F)F)nn34)ncn2)C[C@H](CNS(C)(=O)=O)O1` [II-257, (R)—N-((4-(6-(6-(Difluoromethyl)imidazo[1,2-b]pyridazin-3-yl)pyrimidin-4-yl)-6,6-dimethylmorpholin-2-yl)methyl)methanesulfonamide], the IC50 in experiment [1] was in the range of 500 to 5000 nM. The Ki at GCN2 kinase fell in the range of 10 to 1000 nM.

With `CS(=O)(=O)NCC1CN(c2cc(-c3cnc4ccc(C(F)F)nn34)ncn2)CC(F)(F)C1` (stereo not shown) [II-258, N-((1-(6-(6-(Difluoromethyl)imidazo[1,2-b]pyridazin-3-yl)pyrimidin-4-yl)-5,5-difluoropiperidin-3-yl)methyl)methanesulfonamide], in experiment [1], the IC50 was below 500 nM. Further, the Ki on GCN2 kinase is below 10 nM.

Consider `CN(C)C1CN(c2cc(-c3cnc4ccc(C(F)F)nn34)ncn2)CC(CNS(C)(=O)=O)C1(F)F` (stereo not shown) [II-259, N-((1-(6-(6-(Difluoromethyl)imidazo[1,2-b]pyridazin-3-yl)pyrimidin-4-yl)-5-(dimethylamino)-4,4-difluoropiperidin-3-yl)methyl)methanesulfonamide], for which, in experiment [1], the IC50 is below 500 nM. The compound also registered a Ki at GCN2 kinase below 10 nM.

Regarding `CN(C)C1CN(c2cc(-c3cnc4ccc(C(F)F)nn34)ncn2)CC(CNS(C)(=O)=O)C1(F)F` (stereo not shown) [II-260, N-((1-(6-(6-(Difluoromethyl)imidazo[1,2-b]pyridazin-3-yl)pyrimidin-4-yl)-5-(dimethylamino)-4,4-difluoropiperidin-3-yl)methyl)methanesulfonamide], the IC50 in experiment [1] fell in the range of 500 to 5000 nM. The compound also showed a Ki at GCN2 kinase of 10 to 1000 nM.

In turn, `CC(=O)NCC1CCCN(c2cc(-c3cnc4ccc(C(F)F)nn34)ncn2)C1` (stereo not shown) [II-261, N-((1-(6-(6-(Difluoromethyl)imidazo[1,2-b]pyridazin-3-yl)pyrimidin-4-yl)piperidin-3-yl)methyl)acetamide] yielded an IC50 in experiment [1] of 500 to 5000 nM. The compound also gave an inhibitory constant (Ki) at GCN2 kinase of 10 to 1000 nM.

For `O=S(=O)(NCC1CCCN(c2cc(-c3cnc4ccc(C(F)F)nn34)ncn2)C1)C1CC1` (stereo not shown) [II-262, N-((1-(6-(6-(Difluoromethyl)imidazo[1,2-b]pyridazin-3-yl)pyrimidin-4-yl)piperidin-3-yl)methyl)cyclopropanesulfonamide], in experiment [1], the IC50 is below 500 nM. Besides, the Ki at GCN2 kinase is below 10 nM.

Consider `CCC1COC(CNS(C)(=O)=O)CN1c1cc(-c2cnc3ccc(C(F)F)nn23)ncn1` (stereo not shown) [II-267, N-((4-(6-(6-(Difluoromethyl)imidazo[1,2-b]pyridazin-3-yl)pyrimidin-4-yl)-5-ethylmorpholin-2-yl)methyl)methanesulfonamide], for which the IC50 in experiment [1] lay in the range of 500 to 5000 nM. For the same compound, at GCN2 kinase, the Ki was 10 to 1000 nM.

Regarding `CC1CCC(CNS(C)(=O)=O)C(C)N1c1cc(-c2cnc3ccc(C(F)F)nn23)ncn1` (stereo not shown) [II-268, N-((1-(6-(6-(Difluoromethyl)imidazo[1,2-b]pyridazin-3-yl)pyrimidin-4-yl)-2,6-dimethylpiperidin-3-yl)methyl)methanesulfonamide], the IC50 in experiment [1] is below 500 nM. For the same compound, the Ki at GCN2 kinase was below 10 nM.

`C[C@H]1CN(c2cc(-c3cnc4ccc(C(F)F)nn34)ncc2F)C[C@@H](CNS(C)(=O)=O)C1(F)F` [II-270, N-[[(3S,5S)-1-[2-[6-(Difluoromethyl)imidazo[1,2-b]pyridazin-3-yl]-5-fluoro-4-pyridyl]-4,4-difluoro-5-methyl-3-piperidyl]methyl]methanesulfonamide] registered an IC50 in experiment [1] of 500 to 5000 nM. On GCN2 kinase, this compound displayed a Ki below 10 nM.

Compound `CC1CCC(CNS(C)(=O)=O)CN1c1cc(-c2cnc3ccc(C(F)F)nn23)ncc1F` (stereo not shown) [II-271, N-[[1-[2-[6-(Difluoromethyl)imidazo[1,2-b]pyridazin-3-yl]-5-fluoro-4-pyridyl]-6-methyl-3-piperidyl]methyl]methanesulfonamide] returned an IC50 in experiment [1] of 500 to 5000 nM. The compound also displayed a Ki at GCN2 kinase of 10 to 1000 nM.
